The results in this text go back to US20040229791A1, “Compositions and methods of modulating TGF-beta activity by fatty acids” (priority 2002, published 2004).

This test deals with T1, TGF-β1-α2M* complex (Homo sapiens, UniProt P01023).
T1 construct: was purified from pooled citrate-treate human plasma; from tissue; host or cells: pooled citrate-treated human plasma
T1 sequence (P01023 24-1474): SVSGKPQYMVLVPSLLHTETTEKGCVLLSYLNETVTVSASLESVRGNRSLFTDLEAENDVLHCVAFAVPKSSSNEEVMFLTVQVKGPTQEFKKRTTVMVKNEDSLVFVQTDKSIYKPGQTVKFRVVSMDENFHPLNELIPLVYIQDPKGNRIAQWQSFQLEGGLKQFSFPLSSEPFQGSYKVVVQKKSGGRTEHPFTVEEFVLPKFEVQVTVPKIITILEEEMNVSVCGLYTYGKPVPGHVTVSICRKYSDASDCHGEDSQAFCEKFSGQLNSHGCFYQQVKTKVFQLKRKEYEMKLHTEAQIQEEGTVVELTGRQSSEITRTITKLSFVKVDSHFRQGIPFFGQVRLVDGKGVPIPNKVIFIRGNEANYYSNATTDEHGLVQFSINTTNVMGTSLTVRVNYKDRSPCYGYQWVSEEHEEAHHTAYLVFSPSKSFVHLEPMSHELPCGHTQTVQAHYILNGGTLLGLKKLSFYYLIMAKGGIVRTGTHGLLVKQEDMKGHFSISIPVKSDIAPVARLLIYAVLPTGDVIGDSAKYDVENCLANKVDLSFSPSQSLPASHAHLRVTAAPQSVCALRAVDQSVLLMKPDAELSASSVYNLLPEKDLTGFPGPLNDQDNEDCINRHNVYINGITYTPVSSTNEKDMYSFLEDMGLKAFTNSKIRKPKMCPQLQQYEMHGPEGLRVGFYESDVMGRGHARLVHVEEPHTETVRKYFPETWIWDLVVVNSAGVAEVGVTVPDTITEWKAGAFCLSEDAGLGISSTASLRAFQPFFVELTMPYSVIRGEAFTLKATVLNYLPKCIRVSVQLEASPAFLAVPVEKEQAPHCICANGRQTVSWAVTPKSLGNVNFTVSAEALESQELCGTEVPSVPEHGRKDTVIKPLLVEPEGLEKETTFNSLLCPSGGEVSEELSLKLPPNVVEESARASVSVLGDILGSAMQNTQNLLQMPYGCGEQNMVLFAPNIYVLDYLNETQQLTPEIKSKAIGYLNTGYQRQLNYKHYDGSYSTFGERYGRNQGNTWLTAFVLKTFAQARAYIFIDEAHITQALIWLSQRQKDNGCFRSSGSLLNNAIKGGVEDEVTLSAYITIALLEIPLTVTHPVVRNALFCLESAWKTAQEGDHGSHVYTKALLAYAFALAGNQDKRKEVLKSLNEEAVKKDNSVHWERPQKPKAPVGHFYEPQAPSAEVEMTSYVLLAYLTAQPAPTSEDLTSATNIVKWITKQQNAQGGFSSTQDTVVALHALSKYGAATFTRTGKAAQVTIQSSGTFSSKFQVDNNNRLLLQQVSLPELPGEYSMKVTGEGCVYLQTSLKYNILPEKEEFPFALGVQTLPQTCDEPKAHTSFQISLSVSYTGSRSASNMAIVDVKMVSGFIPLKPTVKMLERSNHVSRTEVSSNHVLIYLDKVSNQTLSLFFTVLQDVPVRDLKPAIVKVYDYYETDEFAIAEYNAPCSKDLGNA
The experiment in a line: Inhibition of 125I-TGF-β1 and α2M* complex formation (5% non-denaturing PAGE, autoradiography). The class given is binding. To be noted: ~1 nM 125I-TGF-β1, 10 μg α2M* in 0.05 ml, 30 min room temperature, non-denaturing PAGE; read-out: IC50 for inhibiting complex formation between TGF-β1 and α2M*. The procedure:
Saturated and unsaturated fatty acids are present in plasma and tissues (25,26). The effects of various concentrations of saturated fatty acids on the formation of complexes between ^125I-TGF ? β1 and ? 2M* were examined. ^125I-TGF- ? 1 (1 nM) was incubated μg/ml) in the presence of various concentrations of n-caprylic acid ([…]), lauric acid (12 carbon atoms), myristic acid (14 carbon atoms), palmitic acid (16 carbon atoms) and stearic acid (18 carbon atoms). After 30 min at room temperature, the reaction mixture was analyzed by 5% non-denaturing PAGE and autoradiography, a standard method form determining complex formation between TGF-β and α2M* (12). […] At 100 μM, it inhibited 20% of the complex formation between TGF ? β1 and α2M*. Esterification consistently abolished the inhibitory activities of the fatty acids.
Complex formation of ^125I-TGF-β and ? 2M*—The reaction mixture contained 10 μg of . α2M*, ˜1 nM of ^125I-TGF- ? 1, ^125I-TGF ? β2 or ^125I-TGF ? acids (dissolved in 100% ethanol) in 0.05 ml of 50 mM HEPES-NaOH buffer, pH 7.4. The final concentration of ethanol in the reaction mixture was 0.5%. These fatty acids and fatty acid derivatives were soluble under the experimental conditions. After 30 min at room temperature, the complex formation of ^125I-TGF- ? and. α2M* was determined by 5% non-denaturing polyacrylamide gel electrophoresis (PAGE) or by 7.5% SDS-PAGE following cross-linking by 0.6 mM DSS. After electrophoresis, the gel was stained with Coomassie blue and analyzed by autoradiography. The ^125I-TGF- ? - ? 2M* complex which co-migrated with free ? 2M* was quantified using a PhosphoImager (Fuji).

A word on the IC50: it is the concentration at which inhibition is half-maximal. In the case of `CC/C=C\C/C=C\C/C=C\CCCCCCCC(=O)O` [linolenic acid], the IC50 was 26 ± 3.1 µM.
